{"source": "paper PMC10226132", "about": "“First-in-Class Selective Inhibitors of the Lysine Acetyltransferase KAT8” (Journal of Medicinal Chemistry, 2023)", "key": {"[1]": {"system": "human intestinal epithelial cells (InEpC)", "assay": "Proliferation of human intestinal epithelial cells (InEpC)", "format": "cell-based", "settings": "25, 50, 100, 200 μM, 72 h", "description": "For analysis of cell proliferation, cells were plated in sextuplicate on 96-well plates in complete media. After 24 h, cells were exposed to different drugs for 72 h. The inhibitory effect of different drugs was assessed by MTT (Sigma, St. Louis, MO, USA) colorimetric assays as previously reported.[67] Aqueous DMSO (0.5% v/v) was used as a control (untreated). The results are reported as “viability of drug-treated cells/viability of untreated cells” × 100 and represent the average ±SD of three independent experiments. IC50 values were using fitted by nonlinear regression using GraphPad Prism 8.0."}, "[2]": {"system": "HT29 cells", "assay": "Cell cycle analysis by propidium iodide staining, HT29", "format": "cell-based, human", "settings": "72 h", "description": "For the analysis of the progression of cells through cell cycle phases and sub-G1 peak identification, 24 h after plating, cells were treated with the different compounds. After 72 h, both floating and adherent cells were collected and fixed with cold 70% ethanol. At least 24 h after fixation, cells were incubated with 0.025 mg/mL Propidium Iodide for 15 min at room temperature and analyzed. For Annexin V analysis, 24 h after plating, cells were treated with 50 and 100 μM of the compounds. In the case of chloroquine experiments, 10 μM chloroquine (Sigma-Aldrich, A9165) was added 30 min before compounds. 72 h after treatment, both floating and adherent cells were collected and stained with an Annexin V-FITC apoptosis detection kit (ENZO #ALX-850-020-KI). Samples were incubated 15 min in the dark at rt, and 10,000 events were then analyzed."}, "[3]": {"system": "UCP2 mRNA in HCT116 cells", "assay": "qRT-PCR of UCP2 mRNA in HCT116 cells", "format": "cell-based, human", "settings": "HCT116, 100 μM, 48 h", "description": "(§1) Total RNA was isolated from cells after 48 h of treatment with compounds 19 and 34 (100 μM) using TRIzol reagent (Life Technologies) following the manufacturer’s instructions. cDNA was obtained by reverse transcription using a SensiFast cDNA Synthesis kit (Meridian Bioscience). qRT-PCR was performed using a Luna Universal qPCR Master Mix (BioLabs) and detected by Quant Studio3. The fold change of gene expression data was calculated by using the ddCT method. All samples were run in sextupled, and the results were presented as mean ± SEM. Detailed sequence of the primers used in the experiments can be found in the list below. • UCP2—Forward: 5′-[…]-3′ • Reverse 5′-[…]-3′ • HOXA9 — Forward: 5′-[…]-3′ • Reverse: 5′-[…]-3′"}, "[4]": {"system": "HOXA9 mRNA in HCT116 cells", "assay": "qRT-PCR of HOXA9 mRNA in HCT116 cells", "format": "cell-based, human", "settings": "HCT116, 100 μM, 48 h", "description": "as §1"}, "[5]": {"system": "LC3 and p62 in HCT116 cells", "assay": "Western blot of autophagic markers in HCT116 cells", "format": "cell-based, human", "settings": "increasing doses, 48 h", "description": "(§2) For WB experiments, the cells were lysed in RIPA buffer supplemented with 1× […] protease inhibitor cocktail (Sigma-Aldrich, S8830); 20 μg of total protein was resolved in 13.5% gels by SDS-PAGE. Then, the proteins were transferred to nitrocellulose membranes (Biorad Laboratories). Membranes were blocked for 1 h and incubated overnight with the appropriate primary antibody at 4 °C. After incubation, membranes were washed and incubated with the appropriate secondary antibody (Biorad Laboratories) for 1 h at room temperature. Following primary rabbit monoclonal antibodies H4K16Ac (1:1000, E2B8W, Rabbit mAb#13534, Cell Signalling Technology), KAT8 (1:1000, D5T3R Rabbit mAb #46862 Cell Signalling Technology), GAPDH (1:1000, sc-32233, Santa Cruz Biotechnologies), anti-LC3B (Sigma-Aldrich, L7543), anti-SQSTM1/p62 (Santa Cruz Biotechnology, sc-28,359), and anti-GAPDH (Santa Cruz Biotechnology, sc-32,233). Secondary antibodies: anti-mouse (Bio-Rad Laboratories, 1,706,515) or anti-rabbit (Bio-Rad Laboratories, 1,706,516) IgG-horseradish peroxidase-conjugated antibodies. Detection was performed by ECL Western Blotting Substrate (Biorad Laboratories). Images of blots were acquired through the ChemiDoc Imaging Systems (Biorad Laboratories). The band signals were quantified using ImageJ, and values were normalized to relative controls, depending on the analysis."}, "[6]": {"system": "LC3 and p62 in HeLa cells", "assay": "Western blot of autophagic markers in HeLa cells", "format": "cell-based, human", "settings": "increasing doses, 48 h", "description": "as §2"}, "[7]": {"system": "KDAC2, 3, 6, and 8", "set-up": "method as in PMID 26718586", "settings": "cited from earlier work"}}}
{"smiles": "O=C(O)c1ccc(N2N=C(c3ccccc3)/C(=C/c3ccc[nH]3)C2=O)cc1", "note": "[Compound 34, (Z)-4-(4-((1H-Pyrrol-2-yl)methylene)-5-oxo-3-phenyl-4,5-dihydro-1H-pyrazol-1-yl)benzoic Acid]", "values": [{"measurement": "effect on proliferation of InEpC", "setting": "[1]", "result": "did not significantly affect the proliferation"}, {"measurement": "change in the different stages of cell cycle, HT29", "setting": "[2]", "result": "no significative change"}, {"measurement": "UCP2 mRNA levels", "setting": "[3]", "result": "reduce the mRNA levels of UCP2"}, {"measurement": "HOXA9 mRNA levels", "setting": "[4]", "result": "downregulating also HOXA9"}, {"measurement": "LC3-II/-I ratio and p62 autophagic markers (WB), HCT116", "setting": "[5]", "result": "modulation of the LC3-II/-I ratio and p62 autophagic markers"}, {"measurement": "LC3-II/-I ratio and p62 autophagic markers (WB), HeLa", "setting": "[6]", "result": "A similar response"}]}
{"smiles": "CC1=NN(c2ccc(C(=O)O)cc2)C(=O)/C1=C\\c1ccc[nH]1", "note": "[Compound 19, (Z)-4-(4-((1H-Pyrrol-2-yl)methylene)-3-methyl-5-oxo-4,5-dihydro-1H-pyrazol-1-yl)benzoic Acid]", "values": [{"measurement": "effect on proliferation of InEpC", "setting": "[1]", "result": "did not significantly affect the proliferation"}, {"measurement": "change in the different stages of cell cycle, HT29", "setting": "[2]", "result": "no significative change"}, {"measurement": "UCP2 mRNA levels", "setting": "[3]", "result": "reduce the mRNA levels of UCP2"}, {"measurement": "LC3-II/-I ratio and p62 autophagic markers (WB), HCT116", "setting": "[5]", "result": "modulation of the LC3-II/-I ratio and p62 autophagic markers"}]}
{"smiles": "CC1=NN(c2ccc(C(=O)O)cc2)C(=O)/C1=C\\c1ccc(-c2cc(C)c(C)cc2[N+](=O)[O-])o1", "note": "[VII (C646), reference compound]", "values": [{"measurement": "IC50", "setting": "[7]", "result": "7 to 25", "unit": "µM"}]}
